This experiment concerns the target T1, Recombinant human GSS (Homo sapiens, UniProt P48637).
T1 sequence (P48637 2-474): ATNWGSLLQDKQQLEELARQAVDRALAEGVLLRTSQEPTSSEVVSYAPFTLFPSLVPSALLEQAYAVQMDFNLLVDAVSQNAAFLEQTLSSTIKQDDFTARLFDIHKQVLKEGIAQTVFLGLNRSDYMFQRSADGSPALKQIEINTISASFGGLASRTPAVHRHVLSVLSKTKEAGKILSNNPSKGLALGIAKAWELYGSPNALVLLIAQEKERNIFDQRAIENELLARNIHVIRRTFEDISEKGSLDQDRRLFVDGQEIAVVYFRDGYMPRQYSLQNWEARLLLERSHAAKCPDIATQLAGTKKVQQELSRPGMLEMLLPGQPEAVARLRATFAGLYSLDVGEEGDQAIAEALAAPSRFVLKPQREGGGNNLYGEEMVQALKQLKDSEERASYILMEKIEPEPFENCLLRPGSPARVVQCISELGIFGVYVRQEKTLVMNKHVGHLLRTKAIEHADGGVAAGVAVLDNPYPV
Briefly: isothermal titration calorimetry. The class given is binding. A general note: In ITC the heat of successive injections is recorded.

`N[C@@H](CCC(=O)N[C@@H](CS)C(=O)O)C(=O)O` [γ-glutamylcysteine]: the Kd – broadly, the constant that tells how readily two partners part at equilibrium – came to 1090 nM.
